Source: US7884135B2, “Modafinil-based treatment for premature ejaculation” (NeuroHealing Pharmaceuticals, Inc., priority 2006, dated 2011)

Legend:
[1] = system: ejaculation during sexual activity; assay: Delayed ejaculation with orally administered (tablet) racemic modafinil (Example 2, Subject 2); format: in vivo, human; conditions: 200 mg oral PROVIGIL tablet, hours after dosing
Description: Subject 2 took racemic modafinil (200 mg) in the form of an orally administrable tablet of PROVIGIL® (Cephalon) at 3:00 pm for the purpose of increasing alertness.

[2] = cited from earlier work
[3] = pharmacokinetic studies of modafinil in the human body (literature); format: in vivo; conditions: l-enantiomer versus d-enantiomer
Description: The optical enantiomers of modafinil have similar pharmacological actions in animals. […] Owing to the differences in half-life and rate of clearance of the individual enantiomers, the use of racemic modafinil results in differences in the circulating levels of the two enantiomers. […] After a single oral dose, racemic modafinil is readily absorbed, reaching maximum plasma concentrations at 2 hours to 4 hours after administration (see, e.g., Wong et al., J. Clin. Pharmacol., 39: 3040 (1999); Wong et al., J. Clin. Pharmacol., 39: 281-288 (1999); Robertson et al., Clin. Pharmacokinet., 42: 123-137 (2003); and Dinges et al., Curr. Medical Research and Opinions, 22: 159-169 (2006)).

[4] = system: mice; conditions: cited from earlier work
[5] = system: ejaculation during sexual activity; assay: Delayed ejaculation with sublingually administered d-modafinil (Example 1, Subject 1); format: in vivo, human; conditions: 100 mg d-modafinil formulation sublingually
Description: The synthesized d-modafinil was compounded into a composition containing sugar, spearmint flavor, cinnamon flavor, gum arabic, gelatin, corn syrup, and dyes that could be administered sublingually. Formulations containing 100 mg of d-modafinil were prepared.
Subject 1 took the above-described formulation of d-modafinil sublingually at 9:00 pm in the course of testing a composition containing d-modafinil for a different effect unrelated to sexual activity.

For `NC(=O)C[S+]([O-])C(c1ccccc1)c1ccccc1` (racemic) [modafinil, 2-[(diphenylmethyl)sulfinyl]acetamide], the “delay in ejaculation during sexual activity” value [1] is given as “experienced a delay in ejaculation” and the “fraction of modafinil eliminated by the liver” value ([2]; humans, ingestion of PROVIGIL tablets, package insert) is given as ≤ 90%.

For `NC(=O)C[S@@+]([O-])C(c1ccccc1)c1ccccc1` [l-modafinil, R-(−)-modafinil, reference compound], the “half-life relative to the d-enantiomer” value [3] is listed as “approximately three-times longer” and the “pharmacological activity compared with the modafinil racemic compound” value [4] is listed as “same pharmacological activity”.

For `NC(=O)C[S@+]([O-])C(c1ccccc1)c1ccccc1` [d-modafinil, S-(+)-modafinil], the “time to ejaculate during sexual activity, factor longer than usual” value ([5]; first administration) is given as “about two to three”, the “time to ejaculate during sexual intercourse, factor of delay” value ([5]; second administration a week later) is given as “about two to three” and the “pharmacological activity compared with the modafinil racemic compound” value [4] is given as “same pharmacological activity”. The “amount in the circulation relative to l-modafinil” value ([2]; after use of racemic modafinil) was “three times less” and the “elimination rate relative to l-modafinil” value ([2]; human, d-modafinil versus l-modafinil) was “three times faster”.
